The source of these data is US20250177392A1, “BROAD SPECTRUM INHIBITORS OF CYTOMEGALOVIRUS” (MICROBIOTIX, INC., priority 2022, published 2025).

Series [1] in a line: Murine liver microsome stability. Format: in vitro ADME. Particulars: % remaining after 30 min at 37° C. in the presence of NADPH.
The subject of series [2] is AD169^R. The series is described as follows: Cells pre-incubation / washout study. In kind it is cell-based, Human cytomegalovirus. The protocol:
(C) NHDF cells were pre-incubated with DMSO, MBX-4992 or heparin prior to virus addition. After addition of AD169^R (MOI 0.2) for 30 min, media was either unchanged or replaced with media containing DMSO, MBX-4992, or heparin. Virus infection was quantified at 24 hpi by GFP fluorescence. Percent infection was normalized to untreated cells. Statistical tests were performed using ordinary one-way ANOVA with multiple comparisons to DMSO treated cells as a control and a Dunnett's post-test: *, p<0.05; ****, p<0.0001.
NHDF cells (10^4) plated overnight in a 96-well plate were pretreated with MBX-4992 (10 μM), heparin (50 μg/mL) or DMSO for 1 hour at 37° C. The plate was then placed at 4° C. for 5 minutes followed by the addition of AD169^R CMV virus for 30 minutes. 2/3rd of the samples were aspirated post binding. Half of those samples received DMSO media, regardless of the drug the cells were previously exposed to. The remaining wells received either MBX-4992 (10 μM) or Heparin (50 μg/mL) overnight. At 18 hpi, the cells were fixed with 4% paraformaldehyde, stained with a rabbit anti-IE1 antibody followed by an anti-rabbit Alexa 647, and analyzed using the Celigo cytometer. The DMSO condition that was not aspirated post binding was set as 100% infection.
We next examined whether pre-treating cells with MBX-4992 can limit virus infection. Cells were pre-treated with MBX-4992 or heparin for […] followed by the addition of AD169^R for 30 min at 4° C. The cells were either washed out or unchanged as indicated and replaced with media containing DMSO, MBX-4992, or heparin followed by incubation at 37° C. At 18 hpi, virus infection was evaluated using a Celigo cytometer.

For series [3], the system named is HSV-2 G. The series is described as follows: Herpes virus panel neutralization, HSV-2. Format: cell-based, Herpes simplex virus 2. The protocol:
To determine the specificity of MBX-4992, additional neutralization experiments were conducted using a panel of herpes viruses performed in the presence of MBX-4992. […] Collectively, the antiviral activity of MBX-4992 is equivalent to that of GCV indicating specific inhibition of CMV replication.

For series [4], the target named is CYP3A4 (Homo sapiens, UniProt P08684). As to the kind of experiment: CYP3A4 inhibition at 10 μM. Particulars: % inhibition of CYP3A4 at 10 μM. In kind it is in vitro ADME.
Series [5] deals with CMV strains AD169, TB40/E^Flag-YFP, Towne, and TR. As to the kind of experiment: CMV infection assay, panel of strains in fibroblasts. In kind it is cell-based, Human cytomegalovirus. The note with it: Human betaherpesvirus 5, AD169, Fibroblast, read-out: IC50 values ranging. The protocol: HCMV strains AD169 (A), TB40/E Flag YFP (B), Towne (C and G), TR (D and F), Merlin (E), and TB40/E (H) infection of NHDF cells pre-treated with DMSO and 0, 1, 5, or 20 μM MBX-4992 or MBXC-4336, respectively, were assessed at 24 hpi based on IE1 expression by anti-IE1 immunostain. TB40/E (I) (MOI 0.25) and AD169^R (J) (MOI 0.25) infection of HTR-svNeo cells treated with DMSO and 0, 1, 5, or 20 μM MBX-4992 were assessed at 24 hpi based on IE1 expression by anti-IE1 immunostain. The % infection was determined using DMSO-treated as 100% infection. The error bars represent values in triplicate. Statistical tests were performed using ordinary one-way ANOVA with multiple comparisons to DMSO treated cells as a control and a Dunnett's post-test *, p<0.05; **, p<0.01; ****, p<0.0001.
Fibroblasts and ARPE-19 cells (10^4) were plated in 96-well plates (Greiner, Monroe, NC). […] At 18 hours post infection (hpi) cells were stained using a rabbit anti-IE1 antibody followed by an anti-rabbit Alexa 647 and measured using a Celigo Cytometer (Parsons et al., Antiviral Res., 193:105124 (2021); Stein et al., Nat. Commun., 10:2699 (2019)). Using the DMSO treated cells as 100% infection, the percent infection of the NAPA compound-treated cells was determined. […]

The subject of series [6] is AD169 CMV virus. The series is described as follows: Time-of-addition assay. In kind it is cell-based, Human cytomegalovirus. The note with it: 10 μM added -60 to 90 minutes post-infection, infection quantified at 24 hpi. The protocol:
FIG. 5A-C are graphs showing that NAPA compounds target an early, post-attachment step of the CMV virus. (A) MBX-4992 (10 μM) was added along a time course post infection with AD169 (MOI 0.2) from −60 to 90 minutes after virus addition to NHDF fibroblasts. Infection at 24 hours was quantified after an immunostain with an anti-IE1 antibody. Percent infection was normalized to untreated cells where media was added either-60 or 90 minutes after virus addition. A schematic of the experimental design is shown.
NHDF cells (10^4) were plated in a 96-well plate overnight. A working stock of MBX-4992 at 20 μM was used as a 2×to achieve a final concentration of 10 μM. […] At […], the cells were fixed with 4% paraformaldehyde, stained with a rabbit anti-IE1 antibody followed by an anti-rabbit Alexa 647, and analyzed using the Celigo cytometer. Using the −60 DMSO treated cells as 100% infectivity, the percent relative to maximum infection was determined from cells treated with drug at different time points.
To further analyze the step of CMV entry targeted by NAPA compound MBX-4992, a time of addition assay was performed. MBX-4992 (10 μM) was added at various times during […] infection (−60, 0, 15, 30, 60, and 90 minutes post-infection (mpi)) with AD169 CMV virus and viral infection was quantified at 24 hpi. […]

Series [7] can be described thus: Maximum solubility in water by nephlometry. In kind it is physicochemical. The note with it: Maximum solubility in water determined by nephlometry.

Each structure is given as a SMILES string. Where only a bound is given, the exact number is not on record here.

Chain of CYP3A4 (P08684 whole entry, species assumed): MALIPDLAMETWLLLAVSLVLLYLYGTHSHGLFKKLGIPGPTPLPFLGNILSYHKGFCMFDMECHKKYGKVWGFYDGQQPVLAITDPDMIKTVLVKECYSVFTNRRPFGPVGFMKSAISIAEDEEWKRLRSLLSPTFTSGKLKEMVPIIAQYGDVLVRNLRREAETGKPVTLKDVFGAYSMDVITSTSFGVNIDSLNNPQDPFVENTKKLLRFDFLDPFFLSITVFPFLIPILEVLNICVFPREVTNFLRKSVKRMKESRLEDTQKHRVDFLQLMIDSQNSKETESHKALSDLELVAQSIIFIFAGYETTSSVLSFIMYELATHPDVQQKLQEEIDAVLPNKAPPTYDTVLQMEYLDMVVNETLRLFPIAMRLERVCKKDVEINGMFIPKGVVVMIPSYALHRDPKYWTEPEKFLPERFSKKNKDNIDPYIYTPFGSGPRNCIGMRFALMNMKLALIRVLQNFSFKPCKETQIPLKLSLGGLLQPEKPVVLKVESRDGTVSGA

In the case of `Cc1nc(Nc2ccc(NC(=O)c3ccco3)cc2)cc(N2CCCC2)n1` [MBX-4992], the MLMS in series [1] was found to be 49%. For the same compound, the “virus infection, drug removed” value in series [2] (cells pre-incubated and compound sequentially removed) is “do not significantly impact infection”. Further, the “virus infection, drug not removed or added back” value in series [2] (cells pre-treated, drugs not removed or added back to washed-out cells) is “significantly inhibited virus infection”. For the same compound, the SI in series [3] turned out to be 1. The IC50 in series [3] (Human alphaherpesvirus 2) was > 150 µM; in series [5], 0.5 to 8 µM. Besides, the CYP in series [4] is <10%. Moreover, in series [6], the “inhibition of infection by time of addition” value is “most effective at preventing infection when introduced prior to and within 30 mpi”. Moreover, the Sol result in series [7] is “high solubility”. Moreover, in series [7] (kinetic from dmso stock), the solubility (kinetic) is > 200 µM.
